# Laboratory results as given in ChEMBL document CHEMBL2203179, “New diarylureas and diarylamides possessing acet(benz)amidophenyl scaffold: design, synthesis, and antiproliferative activity against melanoma cell line” (Bioorg Med Chem Lett, 2012).
# Experiment: Antiproliferative activity against human A375P cells
# Format: functional, cell-based
row,Compound,IC50 [µM]
1,Cc1ccc(NC(=O)Nc2ccc(C)c(NC(=O)c3ccccc3)c2)cc1C,> 30
2,Cc1ccc(NC(=O)Nc2ccccc2Cl)cc1NC(=O)c1ccccc1,> 30
3,Cc1ccc(NC(=O)Nc2ccc(Cl)c(Cl)c2)cc1NC(=O)c1ccccc1,5.8
4,Cc1ccc(NC(=O)Nc2cc(Cl)cc(Cl)c2)cc1NC(=O)c1ccccc1,0.259
5,Cc1ccc(NC(=O)Nc2cc(C(F)(F)F)cc(C(F)(F)F)c2)cc1NC(=O)c1ccccc1,0.162
6,Cc1ccc(NC(=O)Nc2ccc(Cl)c(C(F)(F)F)c2)cc1NC(=O)c1ccccc1,1.3
7,Cc1ccc(NC(=O)Nc2cc(F)cc(C(F)(F)F)c2)cc1NC(=O)c1ccccc1,> 30
8,CC(=O)c1cccc(NC(=O)Nc2ccc(C)c(NC(=O)c3ccccc3)c2)c1,9.8
9,Cc1ccc(NC(=O)Nc2cccc(Oc3ccccc3)c2)cc1NC(=O)c1ccccc1,> 30
10,Cc1ccc(NC(=O)Nc2ccc3c(c2)OCO3)cc1NC(=O)c1ccccc1,> 30
11,Cc1ccc(NC(=O)Nc2ccc3c(c2)OCCO3)cc1NC(=O)c1ccccc1,> 30
12,Cc1ccc(NC(=O)Nc2ccc(Cl)nc2)cc1NC(=O)c1ccccc1,1.6
13,CC(=O)Nc1cc(NC(=O)c2cc(C(F)(F)F)cc(C(F)(F)F)c2)ccc1C,> 30
14,CC(=O)Nc1cc(NC(=O)c2ccc(Cl)c(C(F)(F)F)c2)ccc1C,> 30
15,CC(=O)Nc1cc(NC(=O)c2ccc3c(c2)OCCO3)ccc1C,12.9
16,CC(=O)Nc1cc(NC(=O)c2cc(C)on2)ccc1C,> 30
17,CC(=O)Nc1cc(NC(=O)c2cc(=O)c3ccccc3o2)ccc1C,> 30
18,Cc1ccc(NC(=O)c2cc(C(F)(F)F)cc(C(F)(F)F)c2)cc1NC(=O)c1ccccc1,> 30

row,Compound,IC50 [µM]
1,Cc1ccc(NC(=O)c2ccc(Cl)c(C(F)(F)F)c2)cc1NC(=O)c1ccccc1,> 30
2,Cc1ccc(NC(=O)c2ccc3c(c2)OCCO3)cc1NC(=O)c1ccccc1,> 30
3,Cc1cc(C(=O)Nc2ccc(C)c(NC(=O)c3ccccc3)c2)no1,> 30
4,Cc1ccc(NC(=O)c2cc(=O)c3ccccc3o2)cc1NC(=O)c1ccccc1,> 30
5,CC(=O)Nc1cc(NC(=O)Nc2ccccc2Cl)ccc1C,> 30
6,CC(=O)Nc1cc(NC(=O)Nc2ccc(Cl)c(Cl)c2)ccc1C,2.1
7,CC(=O)Nc1cc(NC(=O)Nc2cc(Cl)cc(Cl)c2)ccc1C,0.561
8,CC(=O)Nc1cc(NC(=O)Nc2cc(C(F)(F)F)cc(C(F)(F)F)c2)ccc1C,0.685
9,CC(=O)Nc1cc(NC(=O)Nc2ccc(Cl)c(C(F)(F)F)c2)ccc1C,1.1
10,CC(=O)Nc1cc(NC(=O)Nc2cc(F)cc(C(F)(F)F)c2)ccc1C,> 30
11,CC(=O)Nc1cc(NC(=O)Nc2ccc(C)c(C)c2)ccc1C,> 30
12,CC(=O)Nc1cc(NC(=O)Nc2cccc(C(C)=O)c2)ccc1C,22.1
13,CC(=O)Nc1cc(NC(=O)Nc2cccc(Oc3ccccc3)c2)ccc1C,> 30
14,CC(=O)Nc1cc(NC(=O)Nc2ccc3c(c2)OCO3)ccc1C,> 30
15,CC(=O)Nc1cc(NC(=O)Nc2ccc3c(c2)OCCO3)ccc1C,> 30
16,CC(=O)Nc1cc(NC(=O)Nc2ccc(Cl)nc2)ccc1C,1.1
17,CNC(=O)c1cc(Oc2ccc(NC(=O)Nc3ccc(Cl)c(C(F)(F)F)c3)cc2)ccn1 [SORAFENIB],2.7

# Experiment: Ratio of IC50 for vemurafenib IC50 to compound IC50 for human A375P cells
# Format: functional
row,Compound,Ratio IC50
1,Cc1ccc(NC(=O)Nc2cc(C(F)(F)F)cc(C(F)(F)F)c2)cc1NC(=O)c1ccccc1,1.57
